Tests used:
[1] = Cotton Pellet Granuloma test (anti-inflammatory activity); format: in vivo; conditions: * significantly active
From the text: (§1) The compounds were examined for Anti-Inflammatory Activity in two conventional tests, the Cotton Pellet Granuloma test and the Carrageenin test.

[2] = Carrageenin test (anti-inflammatory activity); format: in vivo; conditions: * significantly active
From the text: as §1

[3] = phenyl quinone writhing test (analgesic activity); format: in vivo
From the text: The compounds were also examined for Analgesic Activity in the conventional phenyl quinone writhing test.

With `Cc1ccc2c(c1)CCc1cc(CC(=O)O)n(C)c1C2=O` [Example 1, 4,5-Dihydro-1,7-dimethyl-10H-10-oxo-benzo[5,6]cyclohepta[1,2-b]pyrrole-2-acetic acid] as the molecule, how does the “Cotton Pellet % Inhibition” value ([1]; 25 mg/kg) read?
The value was 34%.

And the “Carrageenin % Inhibition” value ([2]; 5 mg/kg)?
The value was 21%.

And the “Carrageenin % Inhibition” value ([2]; 25 mg/kg)?
Its value is 44%.

And the ED50 [3]?
The ED50 was 5.1 mg/kg.

What about the TD50 (in vivo) of the same molecule?
The TD50 was 95 mg/kg.

What does the source list for `Cn1c(CC(=O)O)cc2c1C(=O)c1ccccc1CC2` [Example 2, 4,5-Dihydro-10H-1-methyl-10-oxobenzo[5,6]-cyclohepta[1,2-b]pyrrole-2-aceticacid]?
Cotton Pellet % Inhibition ([1]; 10 mg/kg): 28%; Carrageenin % Inhibition ([2]; 15 mg/kg): 25%; Carrageenin % Inhibition ([2]; 45 mg/kg): 30%; ED50 [3]: 2.4 mg/kg

Which “Carrageenin % Inhibition” value ([2]; 15 mg/kg) does the source give for `CC(=O)CCc1cc2c(n1C)C(=O)c1ccccc1CC2` [Example 4, 4-(4,5-Dihydro-10H-1-methyl-10-oxo-benzo[5,6]cyclohepta[1,2-b]-2-pyrryl)butan-2-one] here?
Its value is 17%.

And the “Carrageenin % Inhibition” value ([2]; 45 mg/kg)?
The value was 20%.

Which “Carrageenin % Inhibition” value ([2]; 45 mg/kg) does the source give for `CC(O)CCc1cc2c(n1C)C(=O)c1ccccc1CC2` (centres unmarked) [Example 5, 4-(4,5-Dihydro-10H-1-methyl-10-oxo-benzo[5,6]cyclohepta[1,2-b]-2-pyrryl)butan-2-ol] here?
Its value is 25%.

Which results are given for `CC(=O)OC(C)CCc1cc2c(n1C)C(=O)c1ccccc1CC2` (centres unmarked) [Example 6, 2-Acetoxy-4-(4,5-dihydro-10H-1-methyl-10-oxo-benzo[5,6]cyclohept[1,2-b]-2-pyrryl)butane]?
Carrageenin % Inhibition ([2]; 15 mg/kg): 17%; Carrageenin % Inhibition ([2]; 45 mg/kg): 19%

Which results are given for `Cn1c(CC(=O)O)cc2c1C(=O)c1ccc(Cl)cc1CC2` [Example 7, 7-Chloro-4,5-dihydro-10H-1-methyl-10-oxobenzo[5,6]cyclohepta[1,2-b]pyrrole-2-acetic acid]?
Cotton Pellet % Inhibition ([1]; 25 mg/kg): 49%; Carrageenin % Inhibition ([2]; 25 mg/kg): 25%

Which “Cotton Pellet % Inhibition” value ([1]; 10 mg/kg) does the source give for `Cn1c(CC(=O)O)cc2c1C(=O)c1ccc(F)cc1CC2` [Example 8, 4,5-Dihydro-7-fluoro-10H-1-methyl-10-oxobenzo[5,6]cyclohepta[1,2-b]pyrrole-2-acetic acid] here?
Its value is 31%.
